Reference: patent US7230007B2, “Derivatives of 3-(Guanidinocarbonyl) heterocycle, methods of preparation and intermediates thereof, their use as medicaments, and pharmaceutical compositions therefrom” (Sanofi-Aventis Deutschland GmbH, priority 2003, dated 2007)
Counter-ions that a name gives are not always drawn.

Columns and labels:
[1] = biological target: T1, NHE1 (Homo sapiens, UniProt P19634); assay: NHE inhibition FLIPR test (intracellular pH recovery, BCECF); type: cell-based; conditions: transfected LAP-1 cell line expressing NHE1 subtype, pHi recovery after acidification
T1 construct: expressed in transfected cells
Description: The NHE inhibitory activities (IC50 values) of the compounds according to the invention were determined by a FLIPR test.
The test is performed in the FLIPR (Fluorescent Imaging Plate Reader) equipped with clear-bottomed and black-walled 96-well microtitration plates.
The growth medium for the transfected cells (Iscove+10% foetal calf serum) also comprises G418 as selection antibiotic to ensure the presence of transfected sequences.
The actual test begins by eliminating the growth medium and adding 100 μl of loading buffer per well (5 μM of BCECF-AM [2′,7′-bis(2-carboxyethyl)-5-(6)-carboxyfluoresceine acetoxymethyl ester] in 20 mM of NH4Cl, 115 mM of choline chloride, 1 mM of CaCl2, 5 mM of KCl, 20 mM of HEPES and 5 mM of glucose; pH 7.4 (adjusted with KOH). The cells are then incubated for 20 minutes at 37° C. This incubation results in the loading of the fluorescent dye into the cells, the fluorescence intensity of which depends on the pHi, and on the NH4Cl, which results in a slight basification of the cells.
The precursor BCECF-AM, a non-fluorescent dye, is, as an ester, capable of crossing the membrane. The actual dye, which is incapable of crossing the membrane, is released inside the cell by esterases.
After this 20-minute incubation, the loading buffer, which comprises NH4Cl and free BCECF-AM, is removed by washing three times in the cell washing device (Tecan Columbus), each wash being performed with 400 μl of washing buffer (133.8 mM of choline chloride, 4.7 mM of KCl, 1.25 mM of MgCl2,1.25 mM of CaCl2, 0.97 mM of K2HPO4, 0.23 mM of KH2PO4, 5 mM of HEPES and 5 mM of glucose; pH 7.4 (adjusted with KOH)). The residual volume remaining in the wells is 90 μl (possibly between 50 and 125 μl). This washing step removes the free BCECF-AM and results in an intracellular acidification (pHi of 6.3–6.4) due to the removal of the external ammonium ions.
As the equilibrium of the intracellular ammonium with the aqueous ammonia and the protons, by removal of the extracellular ammonium and by the subsequent immediate crossing of the aqueous ammonia across the cell membrane, is disrupted, the washing process results in intracellular protons remaining, which is the cause of the intracellular acidification. This acidification can result finally in the death of the cells if it lasts long enough. It is important here for the washing buffer to be free of sodium (<1 mM), otherwise the extracellular sodium ions would result in an immediate increase in the pHi on account of the activity of the cloned NHE isoforms. It is also important for all the buffers used (loading buffer, washing buffer and regeneration buffer) not to contain any HCO3^− ions, otherwise the presence of bicarbonate would result in the activation of bicarbonate-dependent systems that disrupt the pHi regulation, which systems are contained in the LAP-1 parental cell line.
The microtiter plates containing acidified cells are then transferred (up to 20 minutes after the acidification) to the FLIPR. In the FLIPR, the intracellular fluorescent dye is activated with light of a wavelength of 488 nm, which is generated by an argon laser, and the measuring parameters (laser power, illumination time and diaphragm of the […] camera integrated into the FLIPR) are chosen such that the average value of the fluorescent signal per well is between 30,000 and 35,000 relative fluorescence units.
The actual measurement in the FLIPR starts with a photograph being taken by the CCD camera every two seconds under software control. After 10 seconds, the increase in the intracellular pH is initiated by adding 90 μl. of regeneration buffer (133.8 mM of NaCl, 4.7 mM of KCl, 1.25 mM of MgCl2, 1.25 mM of CaCl2, 0.97 mM of K2HPO4, 0.23 mM of KH2PO4, 10 mM of HEPES and 5 mM of glucose; pH 7.4 (adjusted with NaOH)) using a 96-well pipette device incorporated into the FLIPR. Some wells, to which is added pure regeneration buffer, serve as positive controls (100% NHE activity). […]

T1 sequence (P19634 whole entry, species assumed): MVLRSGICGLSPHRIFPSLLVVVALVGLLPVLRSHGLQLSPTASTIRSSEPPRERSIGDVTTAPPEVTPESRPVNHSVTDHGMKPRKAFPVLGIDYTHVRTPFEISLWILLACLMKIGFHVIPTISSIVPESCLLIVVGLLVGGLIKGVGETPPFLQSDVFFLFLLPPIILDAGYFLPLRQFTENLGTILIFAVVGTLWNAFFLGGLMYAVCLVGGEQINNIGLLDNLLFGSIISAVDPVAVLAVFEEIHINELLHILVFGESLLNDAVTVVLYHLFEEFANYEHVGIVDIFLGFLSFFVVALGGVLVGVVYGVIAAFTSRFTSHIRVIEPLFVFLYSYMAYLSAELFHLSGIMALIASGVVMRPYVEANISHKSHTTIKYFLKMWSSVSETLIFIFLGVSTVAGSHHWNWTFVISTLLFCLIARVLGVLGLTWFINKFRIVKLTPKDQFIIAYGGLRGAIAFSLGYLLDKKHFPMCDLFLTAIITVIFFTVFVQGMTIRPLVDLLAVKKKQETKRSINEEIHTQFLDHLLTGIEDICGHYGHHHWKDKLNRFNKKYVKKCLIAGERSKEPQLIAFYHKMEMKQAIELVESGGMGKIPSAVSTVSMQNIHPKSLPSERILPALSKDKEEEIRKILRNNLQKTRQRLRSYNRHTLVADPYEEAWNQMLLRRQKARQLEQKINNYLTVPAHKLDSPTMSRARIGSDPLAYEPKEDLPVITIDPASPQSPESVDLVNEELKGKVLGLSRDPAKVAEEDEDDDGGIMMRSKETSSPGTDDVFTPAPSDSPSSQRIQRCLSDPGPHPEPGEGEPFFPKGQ

Row | IC50 [1] [nM] | melting point [°C] | SMILES
1 | 10 | 210 | N=C(N)NC(=O)c1cn(-c2ccncc2)c2ncccc12 [Example 2, N-[1-(Pyridin-4-yl)-1H-pyrrolo[2,3-b]pyridine-3-carbonyl]guanidine]
2 | 3 |  | CN(C)c1cccc(-n2cc(C(=O)NC(=N)N)c3cccnc32)c1 [Example 7, N-[1-(3-(Dimethylamino)phenyl)-1H-pyrrolo[2,3-b]pyridine-3-carbonyl]guanidine]
3 | 15 |  | N=C(N)NC(=O)c1cn(-c2nccc3ccccc23)c2ncccc12 [Example 3, N-[1-(Isoquinolin-1-yl)-1H-pyrrolo[2,3-b]pyridine-3-carbonyl]guanidine]
4 | 18 | 205 to 207 | Cl.N=C(N)NC(=O)c1cn(-c2ccccn2)c2ncccc12 [Example 5, N-[1-(Pyridin-2-yl)-1H-pyrrolo[2,3-b]pyridine-3-carbonyl]guanidine hydrochloride]
5 | 6240 |  | N=C(N)NC(=O)c1cn(-c2ccc3ccccc3n2)c2ncccc12 [Example 4, N-[1-(Quinolin-2-yl)-1H-pyrrolo[2,3-b]pyridine-3-carbonyl]guanidine]
6 | 660 |  | N=C(N)NC(=O)c1cn(-c2cc(O)nc3ccccc23)c2ncccc12 [Example 10, N-[1-(2-Hydroxy-quinolin-4-yl)-1H-pyrrolo[2,3-b]pyridine-3-carbonyl]-guanidine]
7 | 3 | 164 | N=C(N)NC(=O)c1cn(-c2ccnc3ccccc23)c2ncccc12 [Example 1, N-[1-(Quinolin-4-yl)-1H-pyrrolo[2,3-b]pyridine-3-carbonyl]guanidine]
8 |  | 266 to 270 | CS(=O)(=O)c1ccc(-n2cc(C(=O)NC(=N)N)c3cccnc32)cc1 (as salt: hydrochloride) [Example 6, N-[1-(4-(Methylsulfonyl)phenyl)-1H-pyrrolo[2,3-b]pyridine-3-carbonyl]guanidine hydrochloride]
9 | 3760 |  | CS(=O)(=O)c1ccc(-n2cc(C(=O)NC(=N)N)c3cccnc32)cc1 [Example 6, N-[1-(4-(Methylsulfonyl)phenyl)-1H-pyrrolo[2,3-b]pyridine-3-carbonyl]guanidine hydrochloride]
10 | 26 |  | Cc1cc(-n2cc(C(=O)NC(=N)N)c3cccnc32)c2ccccc2n1 [Example 8, N-[1-(2-Methylquinolin-4-yl)-1H-pyrrolo[2,3-b]pyridine-3-carbonyl]guanidine hydrochloride]
11 | 37 | > 260 | Cn1ccc2c(-n3cc(C(=O)NC(=N)N)c4cccnc43)ncnc21 [Example 9, N-[1-(7-Methyl-7H-pyrrolo[2,3-d]pyrimidin-4-yl)-1H-pyrrolo[2,3-b]pyridine-3-carbonyl]-guanidine]
